This assay concerns the target T1, purine nucleoside phosphorylase (PNP) (Bos taurus, UniProt P55859).
T1 sequence (P55859 1-289): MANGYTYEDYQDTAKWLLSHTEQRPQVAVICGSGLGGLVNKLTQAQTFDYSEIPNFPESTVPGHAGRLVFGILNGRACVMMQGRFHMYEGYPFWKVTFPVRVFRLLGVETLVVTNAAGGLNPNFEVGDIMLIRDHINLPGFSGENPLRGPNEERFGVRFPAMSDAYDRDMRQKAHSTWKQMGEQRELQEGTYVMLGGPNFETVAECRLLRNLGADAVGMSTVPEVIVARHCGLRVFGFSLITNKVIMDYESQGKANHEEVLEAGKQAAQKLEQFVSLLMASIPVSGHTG
The experiment in a line: Purine nucleoside phosphorylase (PNP) radiochemical enzyme assay, [14C]-hypoxanthine formation from [14C]-inosine.

The mark [1] stands for this setting: IC50 (nM), table of Examples 36-42, phosphate concentration not printed in table (Ex. 37 and 38 values agree with 1 mM phosphate in text).
[2] abbreviates: IC50 (PNP inhibition), 1 mM phosphate, calf spleen PNP.
Where [3] appears, read: IC50 (PNP inhibition), 50 mM phosphate, calf spleen PNP.

As a reminder, the IC50 is the concentration needed to halve the response being measured. The low end stands for inhibition by little substance, the high end for a need for much substance.

In the case of `Nc1nc(O)c2[nH]c(N)c(Cc3cccs3)c2n1` [2,6-diamino-3,5-dihydro-7-(2-thienylmethyl)-4H-pyrollo-[3,2-d]pyrimidine-4-one, reference compound], the concentration for half-maximal inhibition (IC50) under setting [1] is 160 nM.
On to `Nc1nc(O)c2[nH]cc(C(CC(=O)O)c3ccccc3)c2n1` (stereo not shown) [Example 15, 3-(2-amino-4-oxo-3H,5H-pyrrolo[3,2-d]pyrimidin-7-yl)-3-phenylpropanoic acid], for which the IC50 is, setting by setting: under setting [2], 12 nM; under setting [3], 190 nM.
In turn, `N#CCC(c1cccc(Cl)c1)c1c[nH]c2c(=O)[nH]cnc12` (stereo not shown) [Example 40] registered a half-inhibitory concentration (IC50) under setting [1] of 10 nM.
With `N#CCC(c1cc(Cl)cc(Cl)c1Cl)c1c[nH]c2c(=O)[nH]c(N)nc12` (stereo not shown) [Example 8A], the IC50 is 640 nM under setting [2] and 10000 nM under setting [3].
Consider `COC(=O)CC(c1ccccc1)c1c[nH]c2c(=O)[nH]c(N)nc12` (stereo not shown) [Example 19, 3-(2-amino-4-oxo-3H,5H-pyrrolo[3,2-d]pyrimidin-7-yl)-3-phenylpropanoic acid, methyl ester], for which the “enzyme inhibition activity (IC50), in words” value (phosphate concentration not stated) is “Significant activity”.

Values taken from US5726311A, “7-disubstituted-methyl-4-oxo-3H,5H-pyrrolo[3,2-d]pyrimidine and pharmaceutical uses and compositions containing the same” (BioCryst Pharmaceuticals, Inc., priority 1995, dated 1998).
